Assay: mn = molality of the nth substance listed, in mol/kg
Details: 101 kPa, Liquid; for apparent molar heat capacity: Flow calorimetry

Nc1ncnc2c1ncn2[C@@H]1O[C@H](CO)[C@@H](O)[C@H]1O [β-adenosine] + O
Details | apparent molar heat capacity [J/K/mol] | mass density [kg/m3]
288.15 K, m1 = 0.01329 | – | 1000.4
288.15 K, m1 = 0.01395 | – | 1000.47
288.15 K, m1 = 0.01492 | – | 1000.56
288.15 K, m1 = 0.01614 | – | 1000.68
288.15 K, m1 = 0.01712 | – | 1000.77
288.15 K, m1 = 0.01799 | – | 1000.86
288.15 K, m1 = 0.01882 | – | 1000.94
288.15 K, m1 = 0.01892 | – | 1000.95
288.15 K, m1 = 0.01942 | – | 1001
298.15 K, m1 = 0.01501 | – | 998.486
298.15 K, m1 = 0.01599 | 483.2 | 998.58
298.15 K, m1 = 0.01704 | 488 | 998.686
298.15 K, m1 = 0.01799 | 487.4 | 998.767
298.15 K, m1 = 0.01899 | 491.7 | 998.864
298.15 K, m1 = 0.01941 | 486.7 | 998.902
298.15 K, m1 = 0.01999 | 489.8 | 998.965
298.15 K, m1 = 0.02098 | 488.4 | 999.055
298.15 K, m1 = 0.02171 | 489.9 | 999.129
298.15 K, m1 = 0.02196 | 487.5 | 999.151
303.15 K, m1 = 0.01329 | – | 996.913
303.15 K, m1 = 0.01395 | – | 996.975
303.15 K, m1 = 0.01501 | – | 997.076
303.15 K, m1 = 0.01546 | – | 997.117
303.15 K, m1 = 0.01614 | – | 997.185
303.15 K, m1 = 0.01712 | – | 997.271
303.15 K, m1 = 0.01799 | – | 997.354
303.15 K, m1 = 0.01892 | – | 997.445
303.15 K, m1 = 0.01903 | – | 997.455
303.15 K, m1 = 0.01942 | – | 997.495
313.15 K, m1 = 0.01297 | – | 993.43
313.15 K, m1 = 0.01346 | – | 993.47
313.15 K, m1 = 0.01395 | – | 993.522
313.15 K, m1 = 0.01501 | – | 993.616
313.15 K, m1 = 0.01598 | – | 993.707
313.15 K, m1 = 0.017 | – | 993.802
313.15 K, m1 = 0.01799 | – | 993.896
313.15 K, m1 = 0.01882 | – | 993.976
313.15 K, m1 = 0.01997 | – | 994.077

Reference: the NIST ThermoML archive (doi:10.1016/j.jct.2008.01.020)
